Common to all, as to assay: MIC, microdilution (CLSI)
Holding throughout (type): cell-based

Test [1] has as its system Bacillus subtilis ATCC 6623 (Bs). The settings on record: ATCC6623; Bs, Bacillus subtilis ATCC 6623; n = 3; read-out: MIC. How it is done: (§1) Compounds were dissolved in dimethyl sulfoxide (DMSO) to achieve a starting concentration of 32 µg/mL as described by us previously. Compounds were further diluted two-fold across the 96-well honeycomb plate columns in cation adjusted Mueller Hinton broth (CAMHB), and bacterial culture was added. Plates were incubated for 18–20 h at 35 ℃ before determining the minimum concentrations at which wells had no visible turbidity to the naked eye. The MIC values were determined from at least a duplicate result obtained from three independent experiments using fresh bacterial cultures on different days.

For test [2], the system named is E. faecalis ATCC 29212 (Ef12). The settings on record: Enterococcus faecalis, ATCC29212; Ef12, antibiotic susceptible E. faecalis ATCC 29212; n = 3; read-out: MIC. How it is done:
as §1

Test [3] deals with E. faecalis ATCC 51299 (Ef99). The settings on record: Enterococcus faecalis, ATCC 51299 / VRE; Ef99, vancomycin-resistant (VRE) E. faecalis ATCC 51299; n = 3; read-out: MIC. How it is done:
as §1

For test [4], the system named is E. faecium ATCC 700221 (Ef21). The conditions noted are these: Enterococcus faecium, ATCC 700221 / VRE; Ef21, vancomycin-resistant (VRE) E. faecium ATCC 700221; n = 3; read-out: MIC. How it is done: as §1
In test [5] the test system is S. aureus ATCC 25923 (Sa23). The conditions noted are these: Staphylococcus aureus, ATCC25923; Sa23, antibiotic susceptible S. aureus ATCC 25923; n = 3; read-out: MIC. How it is done: as §1
The subject of test [6] is S. aureus ATCC 33591 (Sa91). The conditions noted are these: Staphylococcus aureus, ATCC33591; Sa91, methicillin-resistant S. aureus ATCC 33591; n = 3; read-out: MIC. How it is done: as §1
The subject of test [7] is S. aureus ATCC 33592 (Sa92). The conditions noted are these: Staphylococcus aureus, ATCC33592; Sa92, methicillin-resistant S. aureus ATCC 33592; n = 3; read-out: MIC. How it is done: as §1
For test [8], the system named is S. aureus ATCC 700699 (Sa99). The settings on record: Staphylococcus aureus, ATCC700699; Sa99, methicillin-resistant S. aureus ATCC 700699; n = 3; read-out: MIC. How it is done: as §1
The subject of test [9] is S. aureus BAA-2312 (Sa12). The conditions noted are these: Staphylococcus aureus, BAA2312; Sa12, methicillin-resistant S. aureus BAA-2312; n = 3; read-out: MIC. How it is done: as §1
Test [10] concerns S. epidermidis ATCC 700296 (Se). The conditions noted are these: Staphylococcus epidermidis, ATCC700296; Se, S. epidermidis ATCC 700296; n = 3; read-out: MIC. How it is done:
as §1

SMILES strings stand for the structures. Values after ≈ are worked out from the molar mass of the structure shown.

As to `O=C(O)c1ccc(-n2cc(CNc3ccc(F)c(Cl)c3)c(-c3cc(C(F)(F)F)cc(C(F)(F)F)c3)n2)cc1` [Compound 18, 4-[3-[3,5-Bis(trifluoromethyl)phenyl]-4-[(3-chloro-4-fluoro-anilino)methyl]pyrazol-1-yl] benzoic acid], the MIC – broadly, the lowest concentration that inhibits growth of the organism – in test [1] was found to be 1 µg/mL (≈ 1.79 µM); in test [2] it was 2 µg/mL (≈ 3.59 µM); in test [3], 2 µg/mL (≈ 3.59 µM); in test [4] it was 1 µg/mL (≈ 1.79 µM); in test [5], 2 µg/mL (≈ 3.59 µM); in [6], 1 µg/mL (≈ 1.79 µM). In addition, the MIC in test [7] was 1 µg/mL (≈ 1.79 µM); in [8] it was 2 µg/mL (≈ 3.59 µM); in [9], 1 µg/mL (≈ 1.79 µM); in test [10], 2 µg/mL (≈ 3.59 µM).
On to `O=C(O)c1ccc(-n2cc(CNc3cc(Cl)c(F)c(Cl)c3F)c(-c3cc(C(F)(F)F)cc(C(F)(F)F)c3)n2)cc1` [Compound 30, 4-[3-[3,5-Bis(trifluoromethyl)phenyl]-4-[(3,5-dichloro-2,4-difluoro-anilino)methyl]pyrazol-1-yl] benzoic acid], for which the MIC in test [1] worked out at 1 µg/mL (≈ 1.64 µM); in [2], 2 µg/mL (≈ 3.28 µM); in [3], 2 µg/mL (≈ 3.28 µM); in [4] it was 1 µg/mL (≈ 1.64 µM); in test [5], 1 µg/mL (≈ 1.64 µM); in test [6] it was 1 µg/mL (≈ 1.64 µM). Further, the MIC in test [7] is 1 µg/mL (≈ 1.64 µM); in test [8], 2 µg/mL (≈ 3.28 µM); in [9], 2 µg/mL (≈ 3.28 µM); in test [10] it was 2 µg/mL (≈ 3.28 µM).
Consider `O=C(O)c1ccc(-n2cc(CNc3ccc(Br)c(C(F)(F)F)c3)c(-c3cc(C(F)(F)F)cc(C(F)(F)F)c3)n2)cc1` [Compound 23, 4-[3-[3,5-Bis(trifluoromethyl)phenyl]-4-[[4-bromo-3-(trifluoromethyl)anilino]methyl]pyrazol-1-yl] benzoic acid], for which the MIC in test [1] stood at 1 µg/mL (≈ 1.53 µM); in test [2], 2 µg/mL (≈ 3.07 µM); in test [3], 2 µg/mL (≈ 3.07 µM); in [4], 2 µg/mL (≈ 3.07 µM); in test [5] it was 1 µg/mL (≈ 1.53 µM); in test [6] it was 1 µg/mL (≈ 1.53 µM). Further, the MIC was determined as 1 µg/mL (≈ 1.53 µM) in test [7], 2 µg/mL (≈ 3.07 µM) in [8], 2 µg/mL (≈ 3.07 µM) in test [9] and 4 µg/mL (≈ 6.13 µM) in [10].
As to `O=C(O)c1ccc(-n2cc(CNc3cccc(Br)c3)c(-c3cc(C(F)(F)F)cc(C(F)(F)F)c3)n2)cc1` [Compound 10, 4-[3-[3,5-Bis(trifluoromethyl)phenyl]-4-[(3-bromoanilino)methyl]pyrazol-1-yl] benzoic acid], the MIC in test [1] is 2 µg/mL (≈ 3.42 µM); in test [2], 4 µg/mL (≈ 6.85 µM); in test [3], 2 µg/mL (≈ 3.42 µM); in test [4], 4 µg/mL (≈ 6.85 µM); in test [5] it was 2 µg/mL (≈ 3.42 µM); in test [6], 2 µg/mL (≈ 3.42 µM). Further, the minimal inhibitory concentration (MIC) stood at 2 µg/mL (≈ 3.42 µM) in test [7], 2 µg/mL (≈ 3.42 µM) in test [8], 2 µg/mL (≈ 3.42 µM) in [9] and 4 µg/mL (≈ 6.85 µM) in test [10].
For the molecule `O=C(O)c1ccc(-n2cc(CNc3ccc(Cl)cc3)c(-c3cc(C(F)(F)F)cc(C(F)(F)F)c3)n2)cc1` [Compound 9, 4-[3-[3,5-Bis(trifluoromethyl)phenyl]-4-[(4-chloroanilino)methyl]pyrazol-1-yl] benzoic acid], the minimum inhibitory concentration (MIC) in test [1] came to 1 µg/mL (≈ 1.85 µM); in test [2] it was 2 µg/mL (≈ 3.7 µM); in [3], 2 µg/mL (≈ 3.7 µM); in [4], 2 µg/mL (≈ 3.7 µM); in [5] it was 2 µg/mL (≈ 3.7 µM); in [6], 2 µg/mL (≈ 3.7 µM). Further, the minimum inhibitory concentration (MIC) is 1 µg/mL (≈ 1.85 µM) in [7], 2 µg/mL (≈ 3.7 µM) in test [8], 1 µg/mL (≈ 1.85 µM) in [9] and 2 µg/mL (≈ 3.7 µM) in test [10].
As for `O=C(O)c1ccc(-n2cc(CNc3cc(F)c(F)c(F)c3)c(-c3cc(C(F)(F)F)cc(C(F)(F)F)c3)n2)cc1` [Compound 25, 4-[3-[3,5-Bis(trifluoromethyl)phenyl]-4-[(3,4,5-trifluoroanilino)methyl]pyrazol-1-yl] benzoic acid], the minimum inhibitory concentration (MIC) in test [1] came to 1 µg/mL (≈ 1.79 µM); in test [2], 4 µg/mL (≈ 7.15 µM); in test [3], 4 µg/mL (≈ 7.15 µM); in [4], 2 µg/mL (≈ 3.58 µM); in test [5] it was 4 µg/mL (≈ 7.15 µM); in test [6], 2 µg/mL (≈ 3.58 µM). The MIC in test [7] worked out at 2 µg/mL (≈ 3.58 µM); in test [8], 4 µg/mL (≈ 7.15 µM); in [9] it was 2 µg/mL (≈ 3.58 µM); in test [10], 4 µg/mL (≈ 7.15 µM).
With `COc1ccc(NCc2cn(-c3ccc(C(=O)O)cc3)nc2-c2cc(C(F)(F)F)cc(C(F)(F)F)c2)cc1` [Compound 4, 4-[3-[3,5-Bis(trifluoromethyl)phenyl]-4-[(4-methoxyanilino)methyl]pyrazol-1-yl] benzoic acid], the minimal inhibitory concentration (MIC) in test [1] came out at 4 µg/mL (≈ 7.47 µM); in test [2], 16 µg/mL (≈ 29.9 µM); in test [3] it was 16 µg/mL (≈ 29.9 µM); in test [4], 8 µg/mL (≈ 14.9 µM); in test [5] it was 8 µg/mL (≈ 14.9 µM); in test [6], 8 µg/mL (≈ 14.9 µM). For the same molecule, the MIC in test [7] worked out at 8 µg/mL (≈ 14.9 µM); in [8] it was 8 µg/mL (≈ 14.9 µM); in test [9], 4 µg/mL (≈ 7.47 µM); in test [10] it was 16 µg/mL (≈ 29.9 µM).
Turning to `O=C(O)c1ccc(-n2cc(CNc3cccc(F)c3)c(-c3cc(C(F)(F)F)cc(C(F)(F)F)c3)n2)cc1` [Compound 7, 4-[3-[3,5-Bis(trifluoromethyl)phenyl]-4-[(3-fluoroanilino)methyl]pyrazol-1-yl] benzoic acid], the MIC in test [1] came out at 2 µg/mL (≈ 3.82 µM); in test [2], 8 µg/mL (≈ 15.3 µM); in [3] it was 4 µg/mL (≈ 7.64 µM); in [4], 4 µg/mL (≈ 7.64 µM); in test [5], 4 µg/mL (≈ 7.64 µM); in test [6], 4 µg/mL (≈ 7.64 µM). Further, the minimal inhibitory concentration (MIC) came to 2 µg/mL (≈ 3.82 µM) in [7], 4 µg/mL (≈ 7.64 µM) in test [8], 2 µg/mL (≈ 3.82 µM) in test [9] and 4 µg/mL (≈ 7.64 µM) in test [10].
`O=C(O)c1ccc(-n2cc(CNc3ccc(F)c(F)c3F)c(-c3cc(C(F)(F)F)cc(C(F)(F)F)c3)n2)cc1` [Compound 24, 4-[3-[3,5-Bis(trifluoromethyl)phenyl]-4-[(2,3,4-trifluoroanilino)methyl]pyrazol-1-yl] benzoic acid]: the minimum inhibitory concentration (MIC) in test [1] was determined as 1 µg/mL (≈ 1.79 µM); in test [2] it was 2 µg/mL (≈ 3.58 µM); in test [3] it was 2 µg/mL (≈ 3.58 µM); in test [4], 1 µg/mL (≈ 1.79 µM); in [5] it was 2 µg/mL (≈ 3.58 µM); in test [6] it was 1 µg/mL (≈ 1.79 µM). Also, the MIC in [7] is 1 µg/mL (≈ 1.79 µM); in [8], 2 µg/mL (≈ 3.58 µM); in [9], 1 µg/mL (≈ 1.79 µM); in [10], 4 µg/mL (≈ 7.15 µM).
Turning to `O=C(O)c1ccc(-n2cc(CNc3ccc(F)c(Cl)c3F)c(-c3cc(C(F)(F)F)cc(C(F)(F)F)c3)n2)cc1` [Compound 27, 4-[3-[3,5-Bis(trifluoromethyl)phenyl]-4-[(3-chloro-2,4-difluoro-anilino)methyl]pyraz-ol-1-yl] benzoic acid], the minimal inhibitory concentration (MIC) in [1] was 1 µg/mL (≈ 1.74 µM); in test [2], 2 µg/mL (≈ 3.47 µM); in test [3], 2 µg/mL (≈ 3.47 µM); in test [4], 1 µg/mL (≈ 1.74 µM); in test [5] it was 1 µg/mL (≈ 1.74 µM); in [6] it was 1 µg/mL (≈ 1.74 µM). Moreover, the MIC in test [7] was determined as 1 µg/mL (≈ 1.74 µM); in [8], 2 µg/mL (≈ 3.47 µM); in test [9] it was 1 µg/mL (≈ 1.74 µM); in [10] it was 2 µg/mL (≈ 3.47 µM).
For `O=C(O)c1ccc(-n2cc(CNc3ccc(F)cc3)c(-c3cc(C(F)(F)F)cc(C(F)(F)F)c3)n2)cc1` [Compound 8, 4-[3-[3,5-Bis(trifluoromethyl)phenyl]-4-[(4-fluoroanilino)methyl]pyrazol-1-yl] benzoic acid], the MIC in test [1] turned out to be 1 µg/mL (≈ 1.91 µM); in [2], 4 µg/mL (≈ 7.64 µM); in test [3], 4 µg/mL (≈ 7.64 µM); in test [4], 4 µg/mL (≈ 7.64 µM); in test [5], 2 µg/mL (≈ 3.82 µM); in [6], 2 µg/mL (≈ 3.82 µM). In addition, the MIC in test [7] was found to be 2 µg/mL (≈ 3.82 µM); in [8], 4 µg/mL (≈ 7.64 µM); in test [9] it was 2 µg/mL (≈ 3.82 µM); in [10] it was 4 µg/mL (≈ 7.64 µM).

The values are drawn from article PMC8398255, “Synthesis of 3,5-Bis(trifluoromethyl)phenyl-Substituted Pyrazole Derivatives as Potent Growth Inhibitors of Drug-Resistant Bacteria” (Molecules, 2021).
